{
  "source": "patent US20260224577A1",
  "about": "“METHODS OF TREATING HEART FAILURE WITH VIBEGRON” (SUMITOMO PHARMA CO., LTD., priority 2021, published 2026)",
  "key": {"[1]": {"assay": "Plasma titer after 4 weeks of treatment in post-MI mice", "type": "in vivo, mouse", "conditions": "after 4 weeks of treatment (week 6), FIG. 6", "description": "Myocardial infarction was induced in 10-12 week C57B/6 wild-type mice and after 2 weeks echo cardiograms were used to assess the MI severity in each mouse. Mice were randomized for treatment based on similarity and severity of the induced infarct. The mice were started with either vibegron or vehicle (1-3 doses) administered by continuous infusion using 2 week minipumps (Azlet Corp.) that were filled with the appropriate dose and implanted subcutaneously on the back of each animal in the region of the scapula. The minipumps were replaced with new minipumps in the same location at the 2 week time point and dosed for 4 weeks in total. Cardiac function was assessed by echocardiography (Echo) at 0, 2, 4, and 6 weeks. Some mice were subjected to terminal catheterization to measure hemodynamic pressures and adrenergic responsiveness. At the end of the 4 week treatment period (i.e., 6 weeks after MI was induced), cardiac function was measured, mice were sacrificed for histology of the heart, and terminal blood was collected to confirm the serum concentration of vibegron.\n• 1. Day 0 (after 1-2 weeks acclimation)—pre-surgery Echo • 2. Perform LAD Ligation (MI) or Sham procedure • 3. Day 14—Echo and randomly assign groups • 4. Day 14—begin administration of vehicle and drug for 4 weeks • 5. Day 28—Echo (operator blinded to groups)—change pumps for another 2 week dosing • 6. […]"}, "β2-adrenergic receptor": {"target": "T1, β2-adrenergic receptor (Homo sapiens, UniProt P07550)", "T1 construct": "expressed in transfected cells; host or cells: CHO", "T1 sequence (P07550 whole entry)": "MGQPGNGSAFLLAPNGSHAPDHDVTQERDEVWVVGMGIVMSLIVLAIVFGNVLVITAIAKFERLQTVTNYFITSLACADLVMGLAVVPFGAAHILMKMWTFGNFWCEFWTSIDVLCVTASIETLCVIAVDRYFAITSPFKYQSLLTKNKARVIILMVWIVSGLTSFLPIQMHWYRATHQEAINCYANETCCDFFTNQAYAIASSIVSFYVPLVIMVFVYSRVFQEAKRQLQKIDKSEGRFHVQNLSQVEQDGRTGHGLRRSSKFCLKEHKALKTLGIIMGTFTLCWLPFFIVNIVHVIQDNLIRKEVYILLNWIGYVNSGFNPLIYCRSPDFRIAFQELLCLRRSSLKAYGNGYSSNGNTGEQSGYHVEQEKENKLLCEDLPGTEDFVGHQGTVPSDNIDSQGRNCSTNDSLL", "assay": "Functional cellular cAMP (HTRF) assay, CHO cells expressing β2-ARs", "type": "cell-based", "conditions": "relative to procaterol", "procedure": "(§1) The potency and maximal effect of vibegron and mirabegron for β3-adrenergic receptors and the selectivity for each […] receptor were determined. Functional cellular assays for vibegron and mirabegron activity were performed using Chinese hamster ovary (CHO) cells expressing β1- or β2-ARs and human embryonic kidney (HEK) 293 cells expressing β3-ARs. Cells were incubated with vibegron, mirabegron, or the appropriate control (isoproterenol for β1 and β3, procaterol for β2). Responses were quantified using homogeneous time-resolved fluorescence of cyclic adenosine monophosphate. Half-maximal effective concentration (EC50) and maximum response (Emax) values were determined by nonlinear least-squares regression analysis."}, "[2]": {"test_system": "β3-AR over β2-AR and β1-AR", "conditions": "cell based in vitro assays; cited from earlier work"}, "β1-adrenergic receptor": {"target": "T2, β1-adrenergic receptor (Homo sapiens, UniProt P08588)", "T2 construct": "expressed in transfected cells; host or cells: CHO", "T2 sequence (P08588 whole entry)": "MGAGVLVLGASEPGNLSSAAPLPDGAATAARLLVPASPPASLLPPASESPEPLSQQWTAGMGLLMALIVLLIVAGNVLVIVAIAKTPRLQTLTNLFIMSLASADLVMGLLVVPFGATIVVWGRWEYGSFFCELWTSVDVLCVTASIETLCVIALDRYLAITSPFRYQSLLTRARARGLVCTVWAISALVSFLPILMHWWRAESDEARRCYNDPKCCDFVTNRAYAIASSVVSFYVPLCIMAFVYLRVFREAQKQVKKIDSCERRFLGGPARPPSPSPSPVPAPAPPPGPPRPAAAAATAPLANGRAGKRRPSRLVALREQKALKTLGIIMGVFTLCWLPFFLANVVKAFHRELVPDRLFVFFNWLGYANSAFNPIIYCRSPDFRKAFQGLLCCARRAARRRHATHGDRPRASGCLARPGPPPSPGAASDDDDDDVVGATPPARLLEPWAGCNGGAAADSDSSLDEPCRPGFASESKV", "assay": "Functional cellular cAMP (HTRF) assay, CHO cells expressing β1-ARs", "type": "cell-based", "conditions": "relative to isoproterenol", "procedure": "as §1"}, "β3-adrenergic receptor": {"target": "T3, β3-adrenergic receptor (Homo sapiens, UniProt P13945)", "T3 construct": "expressed in transfected cells; host or cells: HEK293", "T3 sequence (P13945 whole entry)": "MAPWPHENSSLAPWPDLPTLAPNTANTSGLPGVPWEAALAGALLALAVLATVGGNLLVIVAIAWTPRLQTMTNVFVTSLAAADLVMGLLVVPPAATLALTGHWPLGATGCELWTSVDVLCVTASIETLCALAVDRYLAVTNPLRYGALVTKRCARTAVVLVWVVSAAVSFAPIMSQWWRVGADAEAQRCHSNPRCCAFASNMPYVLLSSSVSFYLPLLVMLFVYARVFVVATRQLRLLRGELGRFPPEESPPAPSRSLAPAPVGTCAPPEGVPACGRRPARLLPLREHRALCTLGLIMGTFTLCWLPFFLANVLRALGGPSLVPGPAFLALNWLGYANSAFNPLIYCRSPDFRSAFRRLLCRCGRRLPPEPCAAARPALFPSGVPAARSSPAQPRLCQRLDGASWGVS", "assay": "Functional cellular cAMP (HTRF) assay, HEK293 cells expressing β3-ARs", "type": "cell-based", "procedure": "as §1"}},
  "data": [
    {"molecule": "O=C(Nc1ccc(C[C@@H]2CC[C@H]([C@H](O)c3ccccc3)N2)cc1)[C@@H]1CCc2nccc(=O)n21", "note": "[Vibegron, (6S)—N-[4-[[(2S,5R)-5-[(R)-hydroxy(phenyl)methyl]pyrrolidin-2-yl]methyl]phenyl]-4-oxo-7,8-dihydro-6H-pyrrolo[1,2-a]pyrimidine-6-carboxamide]", "values": [
      {"measurement": "Vibegron plasma titer", "setting": "[1]", "result": "consistent with the dosing"},
      {"measurement": "β2-adrenergic activity (% Activity)", "setting": "β2-adrenergic receptor", "result": 2, "unit": "%"},
      {"measurement": "Selectivity for activation of β3-AR over β2-AR and β1-AR", "setting": "[2]", "result": "> 9,000 fold"},
      {"measurement": "β1-adrenergic activity (% Activity)", "setting": "β1-adrenergic receptor", "result": 0, "unit": "%"},
      {"measurement": "β3-adrenergic activity relative to isoproterenol (% Activity)", "setting": "β3-adrenergic receptor; 10 μM, HEK293 cells", "result": 104, "unit": "%"},
      {"measurement": "Emax", "setting": "β3-adrenergic receptor; HEK293, estimated by nonlinear least-squares regression, read-out: Emax (maximum response) at the β3-AR", "result": 99.2, "unit": "%"},
      {"measurement": "EC50", "setting": "β3-adrenergic receptor; HEK293 cells expressing β3-ARs, cAMP, read-out: Mean (SEM) EC50 at the β3-AR", "result": 2.13, "unit": "nM"},
      {"measurement": "Emax (maximum response) at the β3-AR", "setting": "β3-adrenergic receptor; estimated by nonlinear least-squares regression", "result": "~100", "unit": "%"},
      {"measurement": "Potency at activating β3-ARs relative to mirabegron", "setting": "β3-adrenergic receptor; ratio of mean EC50 values", "result": "approximately 5 times"}
    ]}
  ]
}
